Earlier results, collected in patent US20130316010A1, “POLYMERIC MICROPARTICLES” (Case Western Reserve University, priority 2010, published 2013).

System: EGFR
Details: rodent glaucomatous optic neuropathy model and optic nerve crush model

AG1478
EGFR upregulation and activation of astrocytes: reverses this upregulation and activation of astrocytes
survival of RGCs: increases the survival of RGCs
